Results as given in PMC11544713, “The Application of Untargeted Metabolomic Approaches for the Search of Common Bioavailable Metabolites in Human Plasma Samples from Lippia citriodora and Olea europaea Extracts” (Journal of Agricultural and Food Chemistry, 2024).
Where a name gives a salt, the structure may show the parent alone.

Legend:
[1] = Acute intervention: nutrikinetics of plasma metabolites after ingestion of L. citriodora extract (untargeted HPLC-ESI-QTOF-MS)
Description: A total of 25 healthy individuals participated, with an average age of 27 ± 9 years and a mean body mass index (BMI) of 23 ± 3 kg/m^2. None of the participants were taking any medications or nutritional supplements nor did they have any chronic diseases or gastrointestinal issues. The sample size was established based on findings from previous bioavailability research.[14] All participants provided informed consent before participating in the study.
The intervention study was carried out at Miguel Hernández University. Following an overnight fast, the volunteers were categorized into the subsequent groups: a subgroup to evaluate the LC leaf extract (n = 8), another for the OE leaf extract (n = 8), and the placebo subgroup (n = 9). This was a double-blind study, in which sample collection and treatment were carried out uniformly across all three subgroups.
Water was provided ad libitum. Prior to the ingestion of the capsule, a nurse inserted a cannula into the ulnar vein of each volunteer’s nondominant arm, and blood samples were drawn into EDTA-coated tubes at baseline (t = 0). Blood samples were then collected at 0.5, 1, 2, 4, 6, 8, and 10 h after the consumption of the 500 mg capsule. Plasma was separated through centrifugation (10 min at 3000 rpm and 4 °C) and stored at −80 °C until further analysis.
Plasma samples were initially treated using a mixture of methanol and ethanol (50:50; v:v) to remove proteins, following previously reported protocols.[19] During the sample treatment, pooled quality controls (pooled-QC) were prepared by combining equal aliquots from each sample. These QC samples were processed by using the same protocols as the experimental biological samples.
A reversed-phase analytical C18 column (Agilent Zorbax Eclipse Plus, 1.8 μm, 4.6 × 150 mm^2) with a protective cartridge with the same packing was used. MS data were acquired in negative ionization mode, operating in full scan across a mass-to-charge ratio (m/z) range of 50–1700. The analytical method used was adapted from that described by Villegas-Aguilar et al.[19]
Metabolite nutrikinetics were studied using PKSolver, an add-in program for pharmacokinetic data analysis in Microsoft Excel. The time to reach the maximum concentration (observed Tmax) was calculated for each significant metabolite. As an untargeted metabolomic approach was used to detect the circulating metabolites, these were not quantified. Therefore, the maximum concentration (Cmax) and area under the curve (AUC) parameters were calculated in a relative way by using the deconvoluted chromatographic areas. […] Statistical differences were determined by unpaired t tests. All p values less than 0.05 were considered statistically significant.

[2] = Acute intervention: nutrikinetics of plasma metabolites after ingestion of O. europaea extract (untargeted HPLC-ESI-QTOF-MS)
In short: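 Fasted healthy volunteers (n = 8 per extract, placebo n = 9, double-blind) took one 500 mg capsule. Plasma was drawn at 0–10 h, protein-precipitated with methanol:ethanol and analysed by C18 HPLC-ESI-QTOF-MS in negative full scan (m/z 50–1700). Tmax was observed; Cmax and AUC are relative, from deconvoluted peak areas.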

[3] = 0.5 h after L. citriodora extract
[4] = 1 h after L. citriodora extract
[5] = 2 h after L. citriodora extract
[6] = 4 h after L. citriodora extract
[7] = 6 h after L. citriodora extract
[8] = 8 h after L. citriodora extract
[9] = 10 h after L. citriodora extract
[10] = human plasma, 500 mg capsule of L. citriodora (LC) extract, oral, mean ± SD
[11] = 0.5 h after O. europaea extract
[12] = human plasma, 500 mg capsule of O. europaea (OE) extract, oral, mean ± SD

Compound | mean chromatographic area in plasma, T0.5 [1, 3] | mean chromatographic area in plasma, T1 [1, 4] | mean chromatographic area in plasma, T2 [1, 5] | mean chromatographic area in plasma, T4 [1, 6] | mean chromatographic area in plasma, T6 [1, 7] | mean chromatographic area in plasma, T8 [1, 8] | mean chromatographic area in plasma, T10 [1, 9] | AUC: area under the zero-moment curve [1, 10] | Cmax: relative maximum plasma level [1, 10] | observed Tmax: time required to reach Cmax [1, 10] [h] | AUC: area under the zero-moment curve ([1]; human, in vivo, po, 500 mg) | Cmax: relative maximum plasma level ([1]; human, in vivo, po, 500 mg) | mean chromatographic area in plasma, T0.5 ([1]; in vivo) | mean chromatographic area in plasma, T1 ([1]; in vivo) | mean chromatographic area in plasma, T2 ([1]; in vivo) | mean chromatographic area in plasma, T4 ([1]; in vivo) | mean chromatographic area in plasma, T6 ([1]; in vivo) | mean chromatographic area in plasma, T8 ([1]; in vivo) | mean chromatographic area in plasma, T10 ([1]; in vivo) | observed Tmax: time required to reach Cmax ([1]; human, in vivo, po, 500 mg) [h] | also measured
Cc1cccc(O)c1O [3-methylcatechol] | 0 | 0 | 0 | 86 | 91 | 76 | 58 | 565 ± 407 relative chromatographic area/h | 169 ± 59 relative chromatographic area | 8 ± 3 | – | – | – | – | – | – | – | – | – | – | mean chromatographic area in plasma, T0.5 [2, 11]: 290; mean chromatographic area in plasma, T1 ([2]; 1 h after O. europaea extract): 235; mean chromatographic area in plasma, T2 ([2]; 2 h after O. europaea extract): 50; mean chromatographic area in plasma, T4 ([2]; 4 h after O. europaea extract): 64; mean chromatographic area in plasma, T6 ([2]; 6 h after O. europaea extract): 16; mean chromatographic area in plasma, T8 ([2]; 8 h after O. europaea extract): 13; mean chromatographic area in plasma, T10 ([2]; 10 h after O. europaea extract): 0; Cmax: relative maximum plasma level [2, 12]: 307 ± 160 relative chromatographic area; observed Tmax: time required to reach Cmax [2, 12]: 0.6 ± 0.2 h
COc1cc(C=CC(=O)O)ccc1OS(=O)(=O)O [ferulic acid 4-sulfate] | 33 | 131 | 259 | 230 | 222 | 152 | 39 | 1752 ± 1781 relative chromatographic area/h | 354 ± 254 relative chromatographic area | 3 ± 2 | – | – | – | – | – | – | – | – | – | – | mean chromatographic area in plasma, T0.5 [2, 11]: 0; mean chromatographic area in plasma, T1 ([2]; 1 h after O. europaea extract): 78; mean chromatographic area in plasma, T2 ([2]; 2 h after O. europaea extract): 84; mean chromatographic area in plasma, T4 ([2]; 4 h after O. europaea extract): 22; mean chromatographic area in plasma, T6 ([2]; 6 h after O. europaea extract): 18; mean chromatographic area in plasma, T8 ([2]; 8 h after O. europaea extract): 0; mean chromatographic area in plasma, T10 ([2]; 10 h after O. europaea extract): 0; Cmax: relative maximum plasma level [2, 12]: 142 ± 20 relative chromatographic area; observed Tmax: time required to reach Cmax [2, 12]: 1.6 ± 0.5 h
COc1cc(CC(=O)O)ccc1OS(=O)(=O)O [homovanillic acid sulfate isomer 1, homovanillic acid sulfate] | – | – | – | – | – | – | – | – | – | – | 1391 ± 1144 relative chromatographic area/h | 341 ± 164 relative chromatographic area | 0 | 0 | 19 | 147 | 209 | 221 | 207 | – | Cmax: relative maximum plasma level ([2]; human, in vivo, po, 500 mg): 233 ± 69 relative chromatographic area; mean chromatographic area in plasma, T0.5 ([2]; in vivo): 65; mean chromatographic area in plasma, T1 ([2]; in vivo): 212; mean chromatographic area in plasma, T2 ([2]; in vivo): 192; mean chromatographic area in plasma, T4 ([2]; in vivo): 165; mean chromatographic area in plasma, T6 ([2]; in vivo): 119; mean chromatographic area in plasma, T8 ([2]; in vivo): 108; mean chromatographic area in plasma, T10 ([2]; in vivo): 75
COc1cc(CCO)ccc1OS(=O)(=O)O [homovanillyl alcohol sulfate] | 0 | 0 | 0 | 45 | 81 | 76 | 31 | 437 ± 278 relative chromatographic area/h | 156 ± 49 relative chromatographic area | 7 ± 2 | – | – | – | – | – | – | – | – | – | – | mean chromatographic area in plasma, T0.5 [2, 11]: 0; mean chromatographic area in plasma, T1 ([2]; 1 h after O. europaea extract): 94; mean chromatographic area in plasma, T2 ([2]; 2 h after O. europaea extract): 111; mean chromatographic area in plasma, T4 ([2]; 4 h after O. europaea extract): 61; mean chromatographic area in plasma, T6 ([2]; 6 h after O. europaea extract): 0; mean chromatographic area in plasma, T8 ([2]; 8 h after O. europaea extract): 0; mean chromatographic area in plasma, T10 ([2]; 10 h after O. europaea extract): 0; Cmax: relative maximum plasma level [2, 12]: 135 ± 32 relative chromatographic area; observed Tmax: time required to reach Cmax [2, 12]: 2.0 ± 0.9 h
OCCc1ccc(O)c(O)c1 [hydroxytyrosol] | – | – | – | – | – | – | – | – | – | – | – | – | – | – | – | – | – | – | – | – | AUC of the sulfated form compared to the glucuronidated form ([1]; human, in vivo): about 10 times; detection in plasma samples ([2]; in vivo): detected in plasma samples
O=C(O)CCCCCCCCC(=O)O [sebacic acid isomer, sebacic acid] | – | – | – | – | – | – | – | – | – | – | 141 ± 86 relative chromatographic area/h | 119 ± 27 relative chromatographic area | 22 | 102 | 35 | 0 | 0 | 0 | 0 | 1.2 ± 0.4 | –
COc1cc(C(=O)O)ccc1OS(=O)(=O)O [vanillic acid 4-O-sulfate isomer 2, vanillic acid 4-O-sulfate] | 18 | 102 | 43 | 0 | 0 | 0 | 0 | 152 ± 118 relative chromatographic area/h | 119 ± 41 relative chromatographic area | 1.2 ± 0.4 | – | – | – | – | – | – | – | – | – | – | –
C[C@@H]1O[C@@H](O[C@@H]2[C@@H](O)[C@H](OCCc3ccc(O)c(O)c3)O[C@H](CO)[C@H]2OC(=O)/C=C/c2ccc(O)c(O)c2)[C@H](O)[C@H](O)[C@H]1O [verbascoside] | – | – | – | – | – | – | – | – | – | – | – | – | – | – | – | – | – | – | – | – | detection in plasma samples (native form or phase II metabolites) ([1]; in vivo): has not been detected in plasma samples
gardoside [gardoside isomer 1] | – | – | – | – | – | – | – | – | – | – | 608 ± 375 relative chromatographic area/h | 211 ± 72 relative chromatographic area | 0 | 85 | 211 | 86 | 27 | 0 | 0 | 2 ± 0 | –
gardoside [gardoside isomer 2] | – | – | – | – | – | – | – | – | – | – | 2015 ± 547 relative chromatographic area/h | 508 ± 110 relative chromatographic area | 123 | 328 | 480 | 284 | 151 | 51 | 15 | 2.3 ± 0.7 | –
pteroside Z [pteroside Z isomer 1] | – | – | – | – | – | – | – | – | – | – | 123 ± 53 relative chromatographic area/h | 120 ± 22 relative chromatographic area | 0 | 105 | 28 | 0 | 0 | 0 | 0 | 1.2 ± 0.4 | –
pteroside Z [pteroside Z isomer 2] | – | – | – | – | – | – | – | – | – | – | 310 ± 84 relative chromatographic area/h | 181 ± 58 relative chromatographic area | 28 | 152 | 97 | 18 | 0 | 0 | 0 | 2 ± 1 | –
